From patent publication US6337346B1 (University of North Carolina at Chapel Hill, priority 1998, dated 2002)
In brackets after ≈: the same amount, converted by molar mass. Read-outs that look alike come from different tables or passages of the source.

How the values were obtained:
KB cells [1] = settings: cited from earlier work; for ED50: KB cells, background, numbering of Examples 1-13
KB cells [2] = assay: Preliminary KB cell assay (cytotoxicity); assay type: cell-based; settings: Homo sapiens, numbering of Examples 14-16, read-out: ED50 (the source's name)
Experimental: Many anthraquinones, including mitoxantrone (1), show antineoplastic activity (Zee-Cheng, R. Y.; Podrebarac, E. G; Menon, C. S.; Cheng, C. C. J. Med. Chem. 1979, 22, 501-505). In addition, the natural product 2-acetyl-4H, 9H-naphtho[2,3-b]furan-4,9-dione (2) isolated from Tabebuia cassinoids (Lam.) DC.
The unsubstituted (3), two mono-acetyl (5, 6), and two di-acetyl (9, 10) derivatives were tested for cytotoxicity in a preliminary KB cell assay.

MOLT-4 = assay: NCI in vitro human tumor cell line assay; settings: MOLT-4, read-out: Cytotoxicity log GI50 (converted)
MCF 7 = assay: NCI in vitro human tumor cell line assay; assay type: cell-based; settings: MCF7, Breast Cancer MCF 7, Table 3 (numbering of Examples 14-16), average of at least two testings, read-out: Cytotoxicity log GI50 (converted)
IGROV1 = assay: NCI in vitro human tumor cell line assay; assay type: cell-based; settings: IGROV-1, Ovarian Cancer IGROV1, Table 3 (numbering of Examples 14-16), average of at least two testings, read-out: Cytotoxicity log GI50 (converted)
OVCAR-3 = assay: NCI in vitro disease-oriented tumor cells screen; assay type: cell-based, human; settings: Homo sapiens, Ovarian Cancer OVCAR-3, average of at least two testings, read-out: Cytotoxicity log GI50 (converted)
Description: (§1) (Activity is defined as log GI50<−4 where GI50 is the molar concentration causing 50% cell growth inhibition).

MDA-N = assay: NCI in vitro disease-oriented tumor cells screen; assay type: cell-based, human; settings: Homo sapiens, Breast Cancer MDA-N, average of at least two testings, read-out: Cytotoxicity log GI50 (converted)
Description: as §1

SF-539 = assay: NCI in vitro human tumor cell line assay; assay type: cell-based; settings: CNS Cancer SF-539, Table 3 (numbering of Examples 14-16), average of at least two testings, read-out: Cytotoxicity log GI50 (converted)
MDA-MB-435 = assay: NCI in vitro disease-oriented tumor cells screen; assay type: cell-based, human; settings: Homo sapiens, Breast Cancer MDA-MB-435, average of at least two testings, read-out: Cytotoxicity log GI50 (converted)
Description: as §1

SK-MEL-5 = assay: NCI in vitro disease-oriented tumor cells screen; assay type: cell-based, human; settings: Homo sapiens, Melanoma SK-MEL-5, average of at least two testings, read-out: Cytotoxicity log GI50 (converted)
Description: as §1

HCT-15 = assay: NCI in vitro human tumor cell line assay; assay type: cell-based; settings: Colon Cancer HCT-15, Table 3 (numbering of Examples 14-16), average of at least two testings, read-out: Cytotoxicity log GI50 (converted)
NCI-H460 = assay: NCI in vitro human tumor cell line assay; assay type: cell-based; settings: Non-Small Cell Lung Cancer NCI-H460, Table 3 (numbering of Examples 14-16), average of at least two testings, read-out: Cytotoxicity log GI50 (converted)
NCI-H23 = assay: NCI in vitro disease-oriented tumor cells screen; assay type: cell-based, human; settings: Homo sapiens, Non-Small Cell Lung Cancer NCI-H23, average of at least two testings, read-out: Cytotoxicity log GI50 (converted)
Description: as §1

SW-620 = assay: NCI in vitro human tumor cell line assay; assay type: cell-based; settings: Colon Cancer SW-620, Table 3 (numbering of Examples 14-16), average of at least two testings, read-out: Cytotoxicity log GI50 (converted)
human tumor cell lines [3] = assay: NCI in vitro screen, mean over all cell lines tested; settings: Homo sapiens, read-out: Cytotoxicity log GI50, Mean Value (converted)
Description: as §1

SNB-19 = assay: NCI in vitro human tumor cell line assay; assay type: cell-based; settings: CNS Cancer SNB-19, Table 3 (numbering of Examples 14-16), average of at least two testings, read-out: Cytotoxicity log GI50 (converted)
LOX IMVI = assay: NCI in vitro disease-oriented tumor cells screen; assay type: cell-based, human; settings: Homo sapiens, Melanoma LOX IMVI, average of at least two testings, read-out: Cytotoxicity log GI50 (converted)
Description: as §1

MCF 7/ADR-RES = assay: NCI in vitro human tumor cell line assay; assay type: cell-based; settings: MCF7, Breast Cancer MCF 7/ADR-RES, Table 3 (numbering of Examples 14-16), average of at least two testings, read-out: Cytotoxicity log GI50 (converted)
CCRF-CEM = assay: NCI in vitro human tumor cell line assay; assay type: cell-based; settings: Leukemia CCRF-CEM, Table 3 (numbering of Examples 14-16), average of at least two testings, read-out: Cytotoxicity log GI50 (converted)
NCI-H552 = assay: NCI in vitro human tumor cell line assay; assay type: cell-based; settings: Non-Small Cell Lung Cancer NCI-H552, Table 3 (numbering of Examples 14-16), average of at least two testings, read-out: Cytotoxicity log GI50 (converted)
HS 578T = assay: NCI in vitro disease-oriented tumor cells screen; assay type: cell-based, human; settings: Homo sapiens; Breast Cancer HS 578T; Table 2; average of at least two testings; read-out: Cytotoxicity log GI50 (converted)
Description: as §1

M14 = assay: NCI in vitro disease-oriented tumor cells screen; assay type: cell-based, human; settings: Homo sapiens; Melanoma M14; Table 2; average of at least two testings; read-out: Cytotoxicity log GI50 (converted)
Description: as §1

BT-549 = assay: NCI in vitro disease-oriented tumor cells screen; assay type: cell-based, human; settings: Homo sapiens; Breast Cancer BT-549; Table 2; average of at least two testings; read-out: Cytotoxicity log GI50 (converted)
Description: as §1

HL-60(TB) = assay: NCI in vitro disease-oriented tumor cells screen; assay type: cell-based, human; settings: Homo sapiens; Leukemia HL-60(TB); Table 2; average of at least two testings; read-out: Cytotoxicity log GI50 (converted)
Description: as §1

UACC-257 = assay: NCI in vitro disease-oriented tumor cells screen; assay type: cell-based, human; settings: Homo sapiens; Melanoma UACC-257; Table 2; average of at least two testings; read-out: Cytotoxicity log GI50 (converted)
Description: as §1

SK-MEL-2 = assay: NCI in vitro disease-oriented tumor cells screen; assay type: cell-based, human; settings: Homo sapiens; Melanoma SK-MEL-2; Table 2; average of at least two testings; read-out: Cytotoxicity log GI50 (converted)
Description: as §1

NCI-H522 = assay: NCI in vitro disease-oriented tumor cells screen; assay type: cell-based, human; settings: Homo sapiens; Non-Small Cell Lung Cancer NCI-H522; Table 2; average of at least two testings; read-out: Cytotoxicity log GI50 (converted)
Description: as §1

OVCAR-8 = assay: NCI in vitro disease-oriented tumor cells screen; assay type: cell-based, human; settings: Homo sapiens; Ovarian Cancer OVCAR-8; Table 2; average of at least two testings; read-out: Cytotoxicity log GI50 (converted)
Description: as §1

MALME-3M = assay: NCI in vitro disease-oriented tumor cells screen; assay type: cell-based, human; settings: Homo sapiens; Melanoma MALME-3M; Table 2; average of at least two testings; read-out: Cytotoxicity log GI50 (converted)
Description: as §1

SK-MEL-28 = assay: NCI in vitro disease-oriented tumor cells screen; assay type: cell-based, human; settings: Homo sapiens; Melanoma SK-MEL-28; Table 2; average of at least two testings; read-out: Cytotoxicity log GI50 (converted)
Description: as §1

UACC-62 = assay: NCI in vitro disease-oriented tumor cells screen; assay type: cell-based, human; settings: Homo sapiens; Melanoma UACC-62; Table 2; average of at least two testings; read-out: Cytotoxicity log GI50 (converted)
Description: as §1

human tumor cell lines [4] = tested on: human tumor cell lines
Description: as §1

[5] = Table 3 (numbering of Examples 14-16)
[6] = Table 2 (numbering of Examples 1-13)

## O=C1c2c(O)ccc(O)c2C(=O)c2c(NCCNCCO)ccc(NCCNCCO)c21 [Compound 1, mitoxantrone]
KB cells [1]
  ED50: 1.0 µg/mL (≈ 2.25 µM)

## CC(=O)c1cc2c(o1)C(=O)c1ccccc1C2=O [Compound 2, 2-acetyl-4H, 9H-naphtho[2,3-b]furan-4,9-dione]
KB cells [1]; KB cell culture assay, numbering of Examples 14-16, read-out: ED50 (the source's name)
  EC50: 4200 nM
KB cells [1]
  ED50: 2.0 µg/mL (≈ 8.33 µM)

## O=C1c2ccccc2C(=O)c2sccc21 [Compound 3, naphtho[2,3-b]thiophene-4,9-dione, reference compound]
KB cells [2]
  EC50: 6500 nM

## O=C1c2ccccc2C(=O)c2sccc21 [Compound 4, naphtho[2,3-b]thiophene-4,9-dione]
KB cells [1]
  ED50: 1.4 µg/mL (≈ 6.53 µM)

## CC(=O)c1cc2c(s1)C(=O)c1ccccc1C2=O [Compound 5, 2-Acetyl-naphtho[2,3-b]thiophene-4,9-dione]
MOLT-4
  GI50: 2040 nM
MCF 7
  GI50: 1700 nM
IGROV1
  GI50: 1780 nM
OVCAR-3; [5]
  GI50: 501 nM
MDA-N; [5]
  GI50: 1200 nM
SF-539
  GI50: 759 nM
MDA-MB-435; [5]
  GI50: 339 nM
other
  melting point: 139 to 140 °C
SK-MEL-5; [5]
  GI50: 347 nM
HCT-15
  GI50: 708 nM
NCI-H460
  GI50: 457 nM
NCI-H23; [5]
  GI50: 447 nM
SW-620
  GI50: 457 nM
Human tumor cell lines [3]
  GI50: 1950 nM
SNB-19
  GI50: 501 nM
LOX IMVI; [5]
  GI50: 347 nM
MCF 7/ADR-RES
  GI50: 1910 nM
KB cells [1]
  ED50: 0.4 µg/mL (≈ 1.56 µM)
CCRF-CEM
  GI50: 1000 nM
NCI-H552
  GI50: 407 nM
KB cells [2]
  EC50: ~1500 nM

## CC(O)c1cc2c(s1)C(=O)c1sccc1C2=O (stereo not drawn) [Compound 20, 2-(1′-Hydroxyethyl)-4,8-dihydrobenzo[1,2-b:5,4-b′]dithiophene-4,8-dione]
HS 578T
  GI50: 57.5 nM
M14
  GI50: 14.8 nM
OVCAR-3; [6]
  GI50: 117 nM
MDA-N; [6]
  GI50: 18.6 nM
MDA-MB-435; [6]
  GI50: 16.2 nM
other
  melting point: 170 to 172 °C
SK-MEL-5; [6]
  GI50: 13.5 nM
BT-549
  GI50: 34.7 nM
HL-60(TB)
  GI50: 69.2 nM
NCI-H23; [6]
  GI50: 15.5 nM
UACC-257
  GI50: 18.2 nM
Human tumor cell lines [3]
  GI50: 135 nM
SK-MEL-2
  GI50: 30.9 nM
NCI-H522
  GI50: 123 nM
OVCAR-8
  GI50: 162 nM
MALME-3M
  GI50: 19.1 nM
LOX IMVI; [6]
  GI50: 24 nM
SK-MEL-28
  GI50: 38.9 nM
UACC-62
  GI50: 22.4 nM
Human tumor cell lines [4]
  overall cytotoxicity / potency (in words): excellent overall cytotoxicity

## CC(=O)OC(C)c1cc2c(s1)C(=O)c1sccc1C2=O (stereo not drawn) [Compound 21, 2-(1′-Acetoxyethyl)-4,8-dihydrobenzo[1,2-b:5,4-b′]dithiophene-4,8-dione]
HS 578T
  GI50: 513 nM
M14
  GI50: 162 nM
OVCAR-3; [6]
  GI50: 490 nM
MDA-N; [6]
  GI50: 19.1 nM
MDA-MB-435; [6]
  GI50: 182 nM
other
  melting point: 165 to 166 °C
SK-MEL-5; [6]
  GI50: 107 nM
BT-549
  GI50: 282 nM
HL-60(TB)
  GI50: 1740 nM
NCI-H23; [6]
  GI50: 219 nM
UACC-257
  GI50: 214 nM
Human tumor cell lines [3]
  GI50: 794 nM
SK-MEL-2
  GI50: 417 nM
NCI-H522
  GI50: 871 nM
OVCAR-8
  GI50: 1410 nM
MALME-3M
  GI50: 120 nM
LOX IMVI; [6]
  GI50: 209 nM
SK-MEL-28
  GI50: 646 nM
UACC-62
  GI50: 1380 nM
Human tumor cell lines [4]
  overall cytotoxicity / potency (in words): among the least active
